Assays:
hNav1.1 (SCN1A) = hNav1.1 (SCN1A) (Homo sapiens, UniProt P35498); test: Use-dependent inhibition of the CNS Nav1.1 sodium channel; format: cell-based; settings: use-dependent block, 25 Hz, pulse 20, read-out: Nav1.1 UDB 25 Hz 10 uM
Outline: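 HEK-293 cells stably expressing WT hNav1.1, automated whole-cell patch clamp at 23-25 °C with CsF-based internal and NaCl external solutions, pH 7.35. Compound applied twice, 200 s equilibration; block measured at pulse 20 of a 25 Hz train (0 mV, 20 ms) from −120 mV, as mean % inhibition versus compound-free.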

hNaV1.2 (SCN2A) = molecular target: T1, hNaV1.2 (SCN2A) (Homo sapiens, UniProt Q99250); test: Use-dependent inhibition of the CNS Nav1.2 sodium channel; format: cell-based; settings: use-dependent block, 25 Hz, pulse 20, read-out: Nav1.2 UDB 25 Hz 10 uM
T1 construct: expressed in transfected cells
Outline: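 Use-dependent block of human Nav1.2 was measured by automated whole-cell patch clamp (QPatch) in HEK-293 cells stably expressing hNaV1.2 with SCN1B and SCN2B. From a holding potential of −120 mV, a train of 20 pulses to 0 mV (20 ms, 25 Hz) was applied. Peak current at pulse 20 was normalized to the first pulse, and percent inhibition was calculated relative to compound-free recordings.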

T1 sequence (Q99250 whole entry): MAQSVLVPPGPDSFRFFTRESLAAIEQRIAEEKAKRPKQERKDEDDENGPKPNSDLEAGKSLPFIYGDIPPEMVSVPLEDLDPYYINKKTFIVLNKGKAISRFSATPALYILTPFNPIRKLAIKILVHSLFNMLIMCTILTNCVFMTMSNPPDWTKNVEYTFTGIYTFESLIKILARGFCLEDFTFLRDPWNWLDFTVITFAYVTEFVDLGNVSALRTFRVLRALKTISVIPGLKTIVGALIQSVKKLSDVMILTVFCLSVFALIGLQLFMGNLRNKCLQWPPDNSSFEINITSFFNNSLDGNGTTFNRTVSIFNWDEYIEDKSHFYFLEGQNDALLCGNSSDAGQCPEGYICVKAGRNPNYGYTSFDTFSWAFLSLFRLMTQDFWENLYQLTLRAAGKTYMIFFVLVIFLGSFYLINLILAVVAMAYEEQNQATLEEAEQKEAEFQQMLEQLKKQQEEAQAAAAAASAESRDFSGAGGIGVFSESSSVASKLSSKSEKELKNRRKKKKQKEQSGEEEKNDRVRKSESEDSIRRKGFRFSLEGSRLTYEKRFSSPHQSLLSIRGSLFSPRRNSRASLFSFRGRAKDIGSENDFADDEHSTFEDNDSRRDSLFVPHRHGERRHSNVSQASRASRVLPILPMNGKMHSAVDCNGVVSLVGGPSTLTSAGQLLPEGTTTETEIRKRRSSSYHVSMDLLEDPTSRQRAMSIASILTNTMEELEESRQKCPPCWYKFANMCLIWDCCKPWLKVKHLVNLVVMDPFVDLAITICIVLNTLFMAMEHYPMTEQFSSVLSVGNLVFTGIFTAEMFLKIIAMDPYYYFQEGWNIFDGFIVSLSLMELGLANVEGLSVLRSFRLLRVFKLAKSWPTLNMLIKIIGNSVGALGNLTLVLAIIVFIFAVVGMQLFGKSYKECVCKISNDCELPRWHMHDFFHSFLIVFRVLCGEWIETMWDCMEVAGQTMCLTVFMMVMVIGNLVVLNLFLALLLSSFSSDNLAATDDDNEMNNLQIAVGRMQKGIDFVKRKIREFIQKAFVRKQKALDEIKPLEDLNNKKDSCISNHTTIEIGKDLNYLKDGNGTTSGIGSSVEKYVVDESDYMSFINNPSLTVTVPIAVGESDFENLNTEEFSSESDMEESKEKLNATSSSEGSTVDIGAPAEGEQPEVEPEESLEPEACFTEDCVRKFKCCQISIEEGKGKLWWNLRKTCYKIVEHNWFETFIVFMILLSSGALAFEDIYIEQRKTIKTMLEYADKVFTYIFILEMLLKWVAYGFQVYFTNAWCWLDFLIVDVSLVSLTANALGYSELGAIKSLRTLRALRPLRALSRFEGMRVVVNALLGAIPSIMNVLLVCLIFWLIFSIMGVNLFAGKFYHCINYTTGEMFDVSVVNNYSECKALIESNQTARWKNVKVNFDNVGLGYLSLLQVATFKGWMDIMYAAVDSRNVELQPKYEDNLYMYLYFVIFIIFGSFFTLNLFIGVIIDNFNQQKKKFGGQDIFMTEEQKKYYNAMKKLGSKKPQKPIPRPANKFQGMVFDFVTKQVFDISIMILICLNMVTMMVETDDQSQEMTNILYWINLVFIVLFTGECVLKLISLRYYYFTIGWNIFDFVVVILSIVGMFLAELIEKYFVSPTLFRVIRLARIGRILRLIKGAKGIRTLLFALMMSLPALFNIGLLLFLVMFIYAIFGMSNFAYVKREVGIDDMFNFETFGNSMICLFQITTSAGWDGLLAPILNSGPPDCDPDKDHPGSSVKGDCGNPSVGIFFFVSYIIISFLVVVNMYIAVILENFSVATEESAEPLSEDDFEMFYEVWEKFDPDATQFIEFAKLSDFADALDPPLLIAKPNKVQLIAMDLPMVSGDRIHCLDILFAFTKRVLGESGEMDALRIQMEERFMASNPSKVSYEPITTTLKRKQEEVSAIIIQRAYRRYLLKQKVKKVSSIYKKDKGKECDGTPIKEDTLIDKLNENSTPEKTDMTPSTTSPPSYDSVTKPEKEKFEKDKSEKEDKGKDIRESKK
T1 sequence (Q07699 19-218 partner): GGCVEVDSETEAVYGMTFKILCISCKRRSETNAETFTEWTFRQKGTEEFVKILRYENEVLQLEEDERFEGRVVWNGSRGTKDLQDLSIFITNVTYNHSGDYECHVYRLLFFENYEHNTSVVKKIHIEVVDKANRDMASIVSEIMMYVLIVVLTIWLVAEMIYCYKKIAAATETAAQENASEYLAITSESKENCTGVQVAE
T1 sequence (O60939 30-215 partner): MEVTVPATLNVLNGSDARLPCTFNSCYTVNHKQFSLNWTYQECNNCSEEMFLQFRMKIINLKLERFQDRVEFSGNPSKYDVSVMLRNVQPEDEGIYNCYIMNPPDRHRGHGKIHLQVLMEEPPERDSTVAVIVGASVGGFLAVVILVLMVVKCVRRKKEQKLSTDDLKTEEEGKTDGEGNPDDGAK

Row | Compound | inhibition at 10 µM (hNav1.1 (SCN1A)) | inhibition at 10 µM (hNaV1.2 (SCN2A))
1 | COc1cc(-c2ccc(OC(F)(F)F)c(C)c2)cc2c(OCc3ncccn3)noc12 [Example 23, 7-methoxy-5-(3-methyl-4-(trifluoromethoxy)phenyl)-3-(pyrimidin-2-ylmethoxy)benzo[d]isoxazole] | < 5% | 9.9%
2 | Cc1cccc(COc2noc3ccc(-c4ccc(OC(F)(F)F)cc4)cc23)n1 [Example 95, 3-((6-methylpyridin-2-yl)methoxy)-5-(4-(trifluoromethoxy)phenyl)benzo[d]isoxazole] | < 5% | < 5%
3 | CCn1cncc1COc1noc2ccc(-c3ccc(OC(F)(F)F)cc3)cc12 [Example 49, 3-((1-ethyl-1H-imidazol-5-yl)methoxy)-5-(4-(trifluoromethoxy)phenyl)benzo[d]isoxazole] | 56.4% | 49.9%
4 | Cc1cc(-c2ccc(OC(F)(F)F)cc2)cc2c(OCCn3cncn3)noc12 [Example 89, 3-(2-(1H-1,2,4-triazol-1-yl)ethoxy)-7-methyl-5-(4-(trifluoromethoxy)phenyl)benzo[d]isoxazole] | 16.1% | 52%
5 | Cc1nc(C)n(CCOc2noc3ccc(-c4ccc(OC(F)(F)F)cc4)cc23)n1 [Example 76, 3-(2-(3,5-dimethyl-1H-1,2,4-triazol-1-yl)ethoxy)-5-(4-(trifluoromethoxy)phenyl)benzo[d]isoxazole] | 27.2% | 27.9%
6 | FC(F)(F)Oc1ccc(-c2ccc3onc(OCc4cn[nH]c4)c3c2)cc1 [Example 45, 3-((1H-pyrazol-4-yl)methoxy)-5-(4-(trifluoromethoxy)phenyl)benzo[d]isoxazole] | 63.8% | 42.8%
7 | Fc1cc2onc(OCc3ncccn3)c2cc1-c1ccc(OC(F)(F)F)cc1 [Example 31, 6-fluoro-3-(pyrimidin-2-ylmethoxy)-5-(4-(trifluoromethoxy)phenyl)benzo[d]isoxazole] | < 5% | < 5%
8 | CC1(COc2noc3ccc(-c4ccc(OC(F)(F)F)cc4)cc23)COC1 [Example 92, 3-((3-methyloxetan-3-yl)methoxy)-5-(4-(trifluoromethoxy)phenyl)benzo[d]isoxazole] | < 5% | < 5%
9 | FC(F)(F)Oc1ccc(-c2ccc3onc(OCCN4CCOCC4)c3c2)cc1 [Example 78, 3-(2-morpholinoethoxy)-5-(4-(trifluoromethoxy)phenyl)benzo[d]isoxazole] | 39.9% | 32.8%
10 | Cc1cc(-c2ccc(OC(F)(F)F)cc2)cc2c(OCc3ncco3)noc12 [Example 91, 7-methyl-3-(oxazol-2-ylmethoxy)-5-(4-(trifluoromethoxy)phenyl)benzo[d]isoxazole] | 31.1% | 46.9%
11 | CC(Oc1noc2ccc(-c3ccc(OC(F)(F)F)cc3)cc12)c1ccccn1 (centres unmarked) [Example 98, 3-(1-(pyridin-2-yl)ethoxy)-5-(4-(trifluoromethoxy)phenyl)benzo[d]isoxazole] | 15.9% | < 5%
12 | Cn1cc(COc2noc3ccc(-c4ccc(OC(F)(F)F)cc4)cc23)nn1 [Example 44] | 21.1% | 25.4%
13 | CC(C)n1ccnc1COc1noc2ccc(-c3ccc(OC(F)(F)F)cc3)cc12 [Example 48, 3-((1-isopropyl-1H-imidazol-2-yl)methoxy)-5-(4-(trifluoromethoxy)phenyl)benzo[d]isoxazole] | 52.8% | 54.2%
14 | O=C1CCCN1CCOc1noc2c(F)cc(-c3ccc(OC(F)(F)F)cc3)cc12 [Example 80, 1-(2-((7-fluoro-5-(4-(trifluoromethoxy)phenyl)benzo[d]isoxazol-3-yl)oxy)ethyl)pyrrolidin-2-one] | 19.8% | 17.5%
15 | Cn1cncc1COc1noc2ccc(-c3ccc(OC(F)(F)F)cc3)cc12 [Example 50, 3-((1-methyl-1H-imidazol-5-yl)methoxy)-5-(4-(trifluoromethoxy)phenyl)benzo[d]isoxazole] | 49.2% | 27.3%
16 | Fc1cc2onc(OCc3ncccn3)c2cc1-c1ccc2c(c1)OC(F)(F)O2 [Example 35, 5-(2,2-difluorobenzo[d][1,3]dioxol-5-yl)-6-fluoro-3-(pyrimidin-2-ylmethoxy)benzo[d]isoxazole] | < 5% | < 5%
17 | Cc1cccnc1COc1noc2ccc(-c3ccc(OC(F)(F)F)cc3)cc12 [Example 93, 3-((3-methylpyridin-2-yl)methoxy)-5-(4-(trifluoromethoxy)phenyl)benzo[d]isoxazole] | < 5% | < 5%
18 | CC(COc1noc2ccc(-c3ccc(OC(F)(F)F)cc3)cc12)n1cncn1 (centres unmarked) [Example 77, 3-(2-(1H-1,2,4-triazol-1-yl)propoxy)-5-(4-(trifluoromethoxy)phenyl)benzo[d]isoxazole] | 49.2% | 31.8%
19 | COc1ccnc(COc2noc3ccc(-c4ccc(OC(F)(F)F)cc4)cc23)c1 [Example 81, 3-((4-methoxypyridin-2-yl)methoxy)-5-(4-(trifluoromethoxy)phenyl)benzo[d]isoxazole] | < 5% | 21.8%
20 | Cc1cc(-c2cc(C)c3onc(OCc4ncccn4)c3c2)ccc1OC(F)(F)F [Example 18, 7-methyl-5-(3-methyl-4-(trifluoromethoxy)phenyl)-3-(pyrimidin-2-ylmethoxy)benzo[d]isoxazole] | < 5% | < 5%
21 | Fc1cc(C(F)(F)F)ccc1-c1cc2c(OCc3ncccn3)noc2cc1F [Example 33, 6-fluoro-5-(2-fluoro-4-(trifluoromethyl)phenyl)-3-(pyrimidin-2-ylmethoxy)benzo[d]isoxazole] | < 5% | 5.5%
22 | Cc1nc(C)n(C(C)COc2noc3ccc(-c4ccc(OC(F)(F)F)cc4)cc23)n1 (centres unmarked) [Example 79, 3-(2-(3,5-dimethyl-1H-1,2,4-triazol-1-yl)propoxy)-5-(4-(trifluoromethoxy)phenyl)benzo[d]isoxazole] | 36.8% | 34%
23 | FC(F)(F)Oc1ccc(-c2ccc3onc(OCc4nccn4-c4ccccc4)c3c2)cc1 [Example 64, 3-((1-phenyl-1H-imidazol-2-yl)methoxy)-5-(4-(trifluoromethoxy)phenyl)benzo[d]isoxazole] | 33.2% | 34.7%
24 | Cc1cc2onc(OCc3ncccn3)c2cc1-c1ccc(OC(F)(F)F)cc1 [Example 26, 6-methyl-3-(pyrimidin-2-ylmethoxy)-5-(4-(trifluoromethoxy)phenyl)benzo[d]isoxazole] | 58.6% | < 5%
25 | FC(F)(F)Oc1ccc(-c2ccc3onc(OCCn4cnnc4)c3c2)cc1 [Example 63, 3-(2-(4H-1,2,4-triazol-4-yl)ethoxy)-5-(4-(trifluoromethoxy)phenyl)benzo[d]isoxazole] | 77.6% | 68%
26 | Cc1cc(-c2cc3c(OCc4ncccn4)noc3cc2C)ccc1OC(F)(F)F [Example 27, 6-methyl-5-(3-methyl-4-(trifluoromethoxy)phenyl)-3-(pyrimidin-2-ylmethoxy)benzo[d]isoxazole] | < 5% | < 5%
27 | Fc1cc(-c2ccc(OC(F)(F)F)cc2)cc2c(OCc3ncccn3)noc12 [Example 17, 7-fluoro-3-(pyrimidin-2-ylmethoxy)-5-(4-(trifluoromethoxy)phenyl)benzo[d]isoxazole] | 5.9% | < 5%
28 | OCC1(COc2noc3ccc(-c4ccc(OC(F)(F)F)cc4)cc23)COC1 [Example 97, (3-(((5-(4-(trifluoromethoxy)phenyl)benzo[d]isoxazol-3-yl)oxy)methyl)oxetan-3-yl)methanol] | 46.3% | 34.3%

— patent US9416115B2, “Fused heterocyclic compounds as ion channel modulators” (Gilead Sciences, Inc., priority 2013, dated 2016)
